The structures appear in SMILES notation.

Series [1] has as its target T1, human aromatase (Homo sapiens, UniProt P11511).
T1 construct: The JEG-3 cell line, derived from a human placental choriocarcinoma, constitutively overexpresses human aromatase; endogenous in cells; host or cells: JEG-3 (human placental choriocarcinoma)
T1 sequence (P11511 1-503): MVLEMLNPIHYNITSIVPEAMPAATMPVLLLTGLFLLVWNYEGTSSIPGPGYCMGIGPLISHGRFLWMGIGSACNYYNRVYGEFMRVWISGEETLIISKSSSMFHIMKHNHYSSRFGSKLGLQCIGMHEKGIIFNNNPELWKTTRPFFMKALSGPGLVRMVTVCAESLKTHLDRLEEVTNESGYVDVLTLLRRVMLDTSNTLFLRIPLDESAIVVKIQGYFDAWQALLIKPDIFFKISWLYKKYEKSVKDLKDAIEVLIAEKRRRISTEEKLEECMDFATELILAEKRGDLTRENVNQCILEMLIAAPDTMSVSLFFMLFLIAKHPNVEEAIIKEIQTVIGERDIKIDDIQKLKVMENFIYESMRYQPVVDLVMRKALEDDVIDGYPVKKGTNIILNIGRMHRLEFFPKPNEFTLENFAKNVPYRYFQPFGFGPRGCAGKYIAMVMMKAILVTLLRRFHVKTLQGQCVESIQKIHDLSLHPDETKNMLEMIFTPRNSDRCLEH
Put plainly: Aromatase activity alone, tritiated water method in JEG-3 cells. The following applies: footnote a: aromatase activity alone, nd: not detected, read-out: Aromatase activity IC50 (nM) ± S.E.M. Format: cell-based. On the procedure:
The JEG-3 cell line, derived from a human placental choriocarcinoma, constitutively overexpresses human aromatase and represents a relevant model for assaying putative aromatase inhibitors in vitro. Aromatase activity was determined by the tritiated water method. In brief, cells were first seeded into 96-well microplates in decomplemented fetal calf serum (dFCS) supplemented medium. 24 hours later, cells were rinsed and fresh medium containing 1β-^3H-androstenedione as aromatase substrate was added together with test compounds at concentrations ranging from 10^−12 M to 10^−5 M. After 2 hours of incubation, a fraction of the medium was transferred to homologous new 96-well microplates and a dextran-coated charcoal solution was added to each well. Following standing on ice for 10 minutes, microplates were centrifuged (1500 g; 4° C.). All steroids, including the radioactive substrate and the newly biosynthesized estrogens, were adsorbed on charcoal; only ^3H-water specifically formed during aromatisation of 1β-^3H-androstenedione, remained in the supernatant. The radioactivity in the supernatant was measured by liquid scintillation counting. In parallel, cell solubilization was performed in ethylenediamine tetraacetate solution. […] Finally, aromatase activity was expressed in fmoles of ^3H-water formed/2 hours/μg DNA and aromatase inhibition as a percentage of control activity without inhibitor.

The target in series [2] is T1, human aromatase. As to the kind of experiment: Dual aromatase and steroid sulfatase activities in JEG-3 cells: aromatase readout. Format: cell-based. As to conditions: footnote c: dual aromatase and sulfatase activity, nd: not detected, read-out: Aromatase activity IC50 (nM) ± S.E.M. As for the experimental part:
Assays were carried out with cells in logarithmic growth phase on 96-well microplates. 24 h before studies, cells were seeded in decomplemented fetal calf serum (dFCS) supplemented medium. The medium was removed 24 h later and cells were rinsed with PBS to eliminate any trace of dFCS. Then, ^3H-E1S was added in dFCS free medium, followed by test compounds at concentrations ranging from 10^−12 M to 10^−5 M. After 4 h of treatment, the medium was transferred into 96-deep-well microplates and centrifuged at 200×g for 10 min to pellet cells before toluene extraction. A fraction of the medium was used for toluene extraction in order to separate the conjugated substrate from non-conjugated products. The radioactivity in the toluene phase was measured by liquid scintillation counting. […] Finally, estrone sulfatase activity was expressed in pmoles of ^3H-E1+^3H-E2 formed/4 hours/mg DNA and estrone sulfatase inhibition as a percentage of control activity without inhibitor.
In order to evaluate the inhibitory potency of DASI compounds in parallel on both human aromatase and steroid sulfatase activities, a new in vitro model was set up using JEG-3 cells. The experimental conditions of the steroid sulfatase model previously described was adopted with slight modifications: the presence of the two substrates ^3-HE1S and 1β-^3H-androstenedione into the medium and an incubation period of 2 hours. Results were expressed in pmoles of product formed (^3H-E1+^3H-E2 or ^3H2O)/2 hours/mg DNA (Table 1).

Take `N#Cc1ccc(N(Cc2ccc(O)cc2)n2ccnc2)cc1` [Ex 11, 4-[N-(4-hydroxyphenylmethyl)-N-(1H-imidazol-1-yl)amino]benzonitrile]: the IC50 at human aromatase [1] is 0.17 ± 0.01 nM.
Compound `N#Cc1ccc(N(Cc2ccc(O)c(Cl)c2)n2ccnc2)cc1` [Ex 12, 4-[N-(3-chloro-4-hydroxyphenylmethyl)-N-(1H-imidazol-1-yl)amino]benzonitrile] came in with a melting point of 195 °C.
The compound `N#Cc1ccc(N(Cc2ccc(O)c(Br)c2)n2ccnc2)cc1` [Ex 13, 4-[N-(3-bromo-4-hydroxyphenylmethyl)-N-(1H-imidazol-1-yl)amino]benzonitrile] returned a melting point of 198 °C. Further, the IC50 at human aromatase [1] stood at 0.17 ± 0.03 nM. The IC50 on human aromatase [2] came to 0.05 ± 0.02 nM.
On to `COc1cc(CN(c2ccc(C#N)cc2)n2ccnc2)ccc1O` [Ex 14, 4-[N-(4-hydroxy-3-methoxyphenylmethyl)-N-(1H-imidazol-1-yl)amino]benzonitrile], for which the melting point worked out at 215 °C. Besides, the IC50 on human aromatase [1] worked out at 0.21 ± 0.05 nM.
Compound `N#Cc1ccc(N(Cc2c(F)c(F)c(O)c(F)c2F)n2ccnc2)cc1` [Ex 15, 4-[N-(2,3,5,6-tetrafluoro-4-hydroxyphenylmethyl)-N-(1H-imidazol-1-yl)amino]benzonitrile] registered a melting point of 243 °C.
As for `N#Cc1ccc(N(Cc2ccc(O)c(C=O)c2)n2ccnc2)cc1` [Ex 16, 4-[N-(3-formyl-4-hydroxyphenylmethyl)-N-(1H-imidazol-1-yl)amino]benzonitrile], the melting point is 160 °C.
Same read-out and setting: to `N#Cc1ccc(N(Cc2ccc(Cl)nc2)n2ccnc2)cc1` [Ex 18, 4-{N-[(6-chloropyridin-3-yl)methyl]-N-(1H-imidazol-1-yl)amino}benzonitrile] belongs 156 °C; to `N#Cc1ccc(N(Cc2ccc(S(N)(=O)=O)cc2)n2ccnc2)cc1` [Ex 19, 4-{[N-(4-cyanophenyl)-N-(1H-imidazol-1-yl)amino]methyl}benzene sulfonamide], 150 °C.
Turning to `N#Cc1ccc(N(Cc2ccc(O)c([N+](=O)[O-])c2)n2ccnc2)cc1` [Ex 20, 4-[N-(4-hydroxy-3-nitrophenylmethyl)-N-(1H-imidazol-1-yl)amino]benzonitrile], the melting point turned out to be 205 °C. The IC50 on human aromatase [1] was 0.3 nM.
Consider `COc1ccc(CN(c2ccc(C#N)cc2)n2ccnc2)cc1C(=O)O` [Ex 21, 5-{[N-(4-cyanophenyl)-N-(1H-imidazol-1-yl)amino]methyl}-2-methoxybenzoic acid], for which the melting point was 187 °C.
As for `N#Cc1ccc(N(c2ccc([N+](=O)[O-])cc2)n2ccnc2)cc1` [Ex 22, 4-[N-(1H-imidazol-1-yl)-N-(4-nitrophenyl)amino]benzonitrile], the IC50 on human aromatase [1] is 0.32 ± 0.4 nM.
Turning to `N#Cc1ccc(N(C(=O)c2ccc(Cl)nc2)n2ccnc2)cc1` [Ex 23, 6-chloro-N-(4-cyanophenyl)-N-(1H-imidazol-1-yl)nicotinamide], the melting point came to 132 °C.
On the same count and under the same terms, to `N#Cc1ccc(N(C(=O)Cc2ccc(F)cc2)n2ccnc2)cc1` [Ex 24, N-(1H-imidazol-1-yl)-N-(4-cyanophenyl)-2-(4-fluorophenyl)acetamide] belongs 131 °C.
In turn, `N#Cc1ccc(N(C(=O)CCc2ccc(O)cc2)n2ccnc2)cc1` [Ex 26, N-(4-cyanophenyl)-3-(4-hydroxyphenyl)-N-(1H-imidazol-1-yl)propanamide] registered a melting point of 172 °C. In addition, on human aromatase [1], the IC50 is 50.6 nM.
For `COc1ccc2c(CC(=O)N(c3ccc(C#N)cc3)n3ccnc3)csc2c1` [Ex 29, N-(4-cyanophenyl)-N-(1H-imidazol-1-yl)-2-(6-methoxy-benzothien-3-yl)acetamide], the melting point turned out to be 104 °C.
For the compound `COc1ccc2c(CN(c3ccc(C#N)cc3)n3ccnc3)csc2c1` [Ex 30, 4-{N-[1H-imidazol-1-yl]-N-[(6-methoxy-benzothien-3-yl)methyl]amino}benzonitrile], the IC50 on human aromatase [2] is 0.06 nM.
The compound `N#Cc1ccc(N(C(=O)Cc2csc3cc(O)ccc23)n2ccnc2)cc1` [Ex 34, N-(4-cyanophenyl)-N-(1H-imidazol-1-yl)-2-(6-hydroxy-benzothien-3-yl)acetamide] had a melting point of 179 °C.
For `N#Cc1ccc(N(Cc2ccc(O)c(N)c2)n2ccnc2)cc1` [Ex 35, 4-[N-(3-amino-4-hydroxy-phenylmethyl)-N-(1H-imidazol-1-yl)amino]benzonitrile], the IC50 on human aromatase [2] was 2.2 ± 0.7 nM.
`N#Cc1ccc(N(CCOc2ccc(O)cc2)n2ccnc2)cc1` [Ex 36, 4-{N-[2-(4-hydroxyphenoxy)ethyl]-N-(1H-imidazol-1-yl)amino}benzonitrile] returned a melting point of 188 °C. In addition, the IC50 at human aromatase [2] stood at 0.61 ± 0.21 nM.
Taken in the same sequence, the figures for `N#Cc1ccc(N(n2ccnc2)S(=O)(=O)c2ccc(O)cc2)cc1` [Ex 37, N-(4-cyanophenyl)-N-(1H-imidazol-1-yl)-4-hydroxybenzensulfonamide] were 248 °C and 52 ± 9.6 nM.
Take `N#Cc1ccc(N(Cc2cc3ccc(O)cc3s2)n2ccnc2)cc1` [Ex 39, 4-[N-[(6-hydroxy-benzothien-2-yl)methyl]-N-(1H-imidazol-1-yl)amino]benzonitrile]: the melting point was 230 °C.
As for `N#Cc1ccc(N(c2ccc(N)cc2)n2ccnc2)cc1` [Ex 40, 4-[N-(4-aminophenyl)-N-(1H-imidazol-1-yl)amino]benzonitrile], at human aromatase [1], the IC50 was found to be 0.67 ± 0.1 nM.
Turning to `N#Cc1ccc(N(C(=O)c2cc3cc(N)ccc3s2)n2ccnc2)cc1` [Ex 41, 5-Amino-[N-(4-cyanophenyl)-N-(1H-imidazol-1-yl)]-benzothiophene-2-carboxamide], the IC50 at human aromatase [2] worked out at 4.3 nM.
For `N#Cc1ccc(N(c2ccc(NS(N)(=O)=O)cc2)n2ccnc2)cc1` [Ex 49, N-{4-[N-(4-cyanophenyl)-N-(1H-imidazol-1-yl)amino]phenyl}sulfamide], the melting point came out at 121 °C.
Compound `N#Cc1ccc(N(Cc2ccc(OS(N)(=O)=O)cc2NS(N)(=O)=O)n2ccnc2)cc1` [Ex 54, Sulfamic acid 3-(aminosulfonyl)amino-4-{[N-(4-cyanophenyl)-N-(1H-imidazol-1yl)amino]methyl}phenyl ester] displayed a melting point of 197 °C.
On the same count and under the same terms, to `N#Cc1ccc(N(C2=CS(=O)(=O)c3cc(OS(N)(=O)=O)ccc32)n2ccnc2)cc1` [Ex 56, Sulfamic acid 3-[N-(4-cyanophenyl)-N-(1H-imidazol-1yl)amino]-1,1-dioxido-benzothien-6-yl ester] belongs 172 °C.
The same measure, in the same setting: to `N#Cc1ccc(N(Cc2csc3cc(OS(N)(=O)=O)ccc23)n2ccnc2)cc1` [Ex 58, Sulfamic acid 3-{[N-(4-cyanophenyl)-N-(1H-imidazol-1yl)amino]methyl}-benzothien-6-yl ester] belongs 193 °C; to `N#Cc1ccc(N(Cc2cc3ccc(OS(N)(=O)=O)cc3s2)n2ccnc2)cc1` [Ex 59, Sulfamic acid 2-{[N-(4-cyanophenyl)-N-(1H-imidazol-1yl)amino]methyl}-benzothien-6-yl ester], 178 °C.
Regarding `N#Cc1ccc(N(Cc2ccc3c(c2)CNS(=O)(=O)O3)n2ccnc2)cc1` [Ex 61, 4-[N-[(2,2-dioxido-3,4-dihydro-1,2,3-benzoxathiazin-6-yl)methyl]-N-(1H-imidazol-1-yl)amino]benzonitrile], the 50% inhibitory concentration (IC50) on human aromatase [1] was determined as 1.06 ± 0.21 nM.
For `N#Cc1ccc(N(Cc2ccc(O)c(C(=O)O)c2)n2ccnc2)cc1` [Ex 62, 5-{[N-(4-cyanophenyl)-N-(1H-imidazol-1-yl)amino]methyl}-2-hydroxybenzoic acid], on human aromatase [2], the IC50 is 81.8 nM.

For orientation: IC50 means the midpoint of a concentration-inhibition curve. For orientation: melting point means the temperature of the solid-liquid transition.

For the origin of these results see patent US8476455B2, “1-N-phenyl-amino-1h-imidazole derivatives and pharmaceutical compositions containing them” (Laboratoire Theramex, priority 2003, dated 2013).
